Patent publication US6451791B1, “Amidoaromatic ring sulfonamide hydroxamic acid compounds” (Monsanto Company, priority 1997, dated 2002)
Where a name gives a salt, the structure may show the parent alone.

Legend:
hMMP-1 = target: T1, hMMP-1 (Homo sapiens, UniProt P03956); assay: In vitro metalloprotease inhibition, fluorogenic MCA peptide substrate; type: biochemical; details: recombinant human enzyme, APMA activated, room temperature, pH 7.5
T1 construct: made in house; host or cells: transfected HT-1080 cells (provided by Dr. Howard Welgus, Washington University)
T1 sequence (P03956 100-469): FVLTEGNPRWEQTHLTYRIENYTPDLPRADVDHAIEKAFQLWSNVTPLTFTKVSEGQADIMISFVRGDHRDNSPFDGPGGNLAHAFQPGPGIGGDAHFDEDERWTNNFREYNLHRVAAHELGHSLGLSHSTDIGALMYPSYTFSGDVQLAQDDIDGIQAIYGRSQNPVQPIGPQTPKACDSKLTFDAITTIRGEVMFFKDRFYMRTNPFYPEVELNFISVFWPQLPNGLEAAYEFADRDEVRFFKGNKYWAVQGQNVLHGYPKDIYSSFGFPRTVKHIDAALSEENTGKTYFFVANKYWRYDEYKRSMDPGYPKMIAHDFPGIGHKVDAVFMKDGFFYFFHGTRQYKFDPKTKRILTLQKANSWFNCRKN
Procedure: (§1) The compounds prepared in the manner described in Examples 1 to 15 were assayed for activity by an in vitro assay. Following the procedures of Knight et al., FEBS Lett. 296(3):263 (1992). Briefly, 4-aminophenylmercuric acetate (APMA) or trypsin activated MMPs were incubated with various concentrations of the inhibitor compound at room temperature for 5 minutes.
(§2) More specifically, recombinant human MMP-13 and MMP-1 enzymes were prepared in laboratories of the assignee. MMP-13 was expressed in baculovirus as a proenzyme, and purified first over a heparin agarose column and then over a chelating zinc chloride column. The proenzyme was activated by APMA for use in the assay. MMP-1 expressed in transfected HT-1080 cells was provided by Dr. Howard Welgus of Washington University, St. Louis, Mo. The enzyme was also activated using APMA and was then purified over a hydroxamic acid column.
(§3) The enzyme substrate is a methoxycoumarin-containing polypeptide having the following sequence:
(§4) MCA-ProLeuGlyLeuDpaAlaArgNH^2, wherein MCA is methoxycoumarin and Dpa is 3-(2,4-dinitrophenyl)-L-2,3-diaminopropionyl alanine. This substrate is commercially available from Baychem as product M-1895.
(§5) The buffer used for assays contained 100 mM Tris-HCl, 100 mM NaCl, 10 mM CaCl2 and 0.05 percent polyethyleneglycol (23) lauryl ether at a pH value of 7.5. Assays were carried out at room temperature, and dimethyl sulfoxide (DMSO) at a final concentration of 1 percent was used to dissolve inhibitor compound.
(§6) The assayed inhibitor compound in DMSO/buffer solution was compared to an equal amount of DMSO/buffer with no inhibitor as control using Microfluor™ White Plates (Dynatech). The inhibitor or control solution was maintained in the plate for 10 minutes and the substrate was added to provide a final concentration of 4 μM.
(§7) In the absence of inhibitor activity, a fluorogenic peptide was cleaved at the gly-leu peptide bond, separating the highly fluorogenic peptide from a 2,4-dinitrophenyl quencher, resulting in an increase of fluorescence intensity (excitation at 328 nm/emission at 415 nm). Inhibition was measured as a reduction in fluorescent intensity as a function of inhibitor concentration, using a Perkin Elmer L550 plate reader. The IC50 values were calculated from those values. The results are set forth in the Inhibition Table below as Table 9, reported in terms of IC50.

hMMP-13 = target: T2, hMMP-13 (Homo sapiens, UniProt P45452); assay: as above; type: biochemical; details: recombinant human enzyme, APMA activated, room temperature, pH 7.5
T2 construct: made in house
Procedure: as §1, §2, §3, §4, §5, §6, §7

hMMP-9 = hMMP-9 (Homo sapiens, UniProt P14780); assay: as above; type: biochemical; details: room temperature, pH 7.5
Procedure: as §1, §3, §4, §5, §6, §7

hMMP-2 = target: T3, hMMP-2 (Homo sapiens, UniProt P08253); assay: as above; type: biochemical; details: room temperature, pH 7.5
T3 sequence (P08253 110-660): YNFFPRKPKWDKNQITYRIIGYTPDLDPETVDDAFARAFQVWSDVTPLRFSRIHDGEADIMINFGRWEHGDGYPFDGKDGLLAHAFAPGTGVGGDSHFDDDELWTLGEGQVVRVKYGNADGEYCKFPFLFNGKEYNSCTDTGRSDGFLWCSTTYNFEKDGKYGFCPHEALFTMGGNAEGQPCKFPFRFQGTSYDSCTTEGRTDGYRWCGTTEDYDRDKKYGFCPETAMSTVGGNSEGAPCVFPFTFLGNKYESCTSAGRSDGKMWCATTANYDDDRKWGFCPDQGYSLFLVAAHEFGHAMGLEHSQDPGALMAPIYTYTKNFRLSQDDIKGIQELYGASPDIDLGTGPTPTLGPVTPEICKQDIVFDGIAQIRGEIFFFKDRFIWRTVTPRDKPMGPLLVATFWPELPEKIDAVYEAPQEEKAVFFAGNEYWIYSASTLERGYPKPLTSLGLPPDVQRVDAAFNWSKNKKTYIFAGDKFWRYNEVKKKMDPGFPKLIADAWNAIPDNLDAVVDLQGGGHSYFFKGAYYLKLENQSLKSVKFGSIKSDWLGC
Procedure: as §1, §3, §4, §5, §6, §7

hMMP-3 = hMMP-3 (Homo sapiens, UniProt P08254); assay: as above; type: biochemical; details: room temperature, pH 7.5
Procedure: as §1, §3, §4, §5, §6, §7

hMMP-8 = hMMP-8 (Homo sapiens, UniProt P22894); assay: as above; type: biochemical; details: room temperature, pH 7.5
Procedure: as §1, §3, §4, §5, §6, §7

[1] = test system: advanced, rapidly progressive, treatment-refractory solid tumor cancers; details: cited from earlier work

Sequence of hMMP-8 (P22894 101-467): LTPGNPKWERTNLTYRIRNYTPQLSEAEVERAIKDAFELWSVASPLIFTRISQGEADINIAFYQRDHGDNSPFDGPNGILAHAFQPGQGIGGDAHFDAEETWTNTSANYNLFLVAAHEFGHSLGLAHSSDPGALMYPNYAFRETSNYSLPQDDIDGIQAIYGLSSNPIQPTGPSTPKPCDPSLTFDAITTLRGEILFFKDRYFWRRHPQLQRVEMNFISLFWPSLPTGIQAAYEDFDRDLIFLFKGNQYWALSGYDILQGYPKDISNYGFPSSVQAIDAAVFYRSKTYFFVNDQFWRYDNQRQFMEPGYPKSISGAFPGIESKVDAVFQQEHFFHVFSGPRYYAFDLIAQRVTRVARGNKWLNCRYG
Sequence of hMMP-3 (P08254 100-477): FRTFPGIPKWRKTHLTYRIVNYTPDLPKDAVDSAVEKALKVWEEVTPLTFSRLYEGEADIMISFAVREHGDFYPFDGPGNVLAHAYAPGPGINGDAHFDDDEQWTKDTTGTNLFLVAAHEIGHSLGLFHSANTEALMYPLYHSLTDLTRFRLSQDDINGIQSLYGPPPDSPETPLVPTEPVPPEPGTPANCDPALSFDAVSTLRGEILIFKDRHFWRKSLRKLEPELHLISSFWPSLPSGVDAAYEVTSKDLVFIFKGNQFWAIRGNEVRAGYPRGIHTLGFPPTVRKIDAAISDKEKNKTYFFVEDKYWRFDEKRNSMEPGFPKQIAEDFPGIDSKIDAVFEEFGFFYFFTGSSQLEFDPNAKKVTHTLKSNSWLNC
Sequence of hMMP-9 (P14780 107-707 limits assumed): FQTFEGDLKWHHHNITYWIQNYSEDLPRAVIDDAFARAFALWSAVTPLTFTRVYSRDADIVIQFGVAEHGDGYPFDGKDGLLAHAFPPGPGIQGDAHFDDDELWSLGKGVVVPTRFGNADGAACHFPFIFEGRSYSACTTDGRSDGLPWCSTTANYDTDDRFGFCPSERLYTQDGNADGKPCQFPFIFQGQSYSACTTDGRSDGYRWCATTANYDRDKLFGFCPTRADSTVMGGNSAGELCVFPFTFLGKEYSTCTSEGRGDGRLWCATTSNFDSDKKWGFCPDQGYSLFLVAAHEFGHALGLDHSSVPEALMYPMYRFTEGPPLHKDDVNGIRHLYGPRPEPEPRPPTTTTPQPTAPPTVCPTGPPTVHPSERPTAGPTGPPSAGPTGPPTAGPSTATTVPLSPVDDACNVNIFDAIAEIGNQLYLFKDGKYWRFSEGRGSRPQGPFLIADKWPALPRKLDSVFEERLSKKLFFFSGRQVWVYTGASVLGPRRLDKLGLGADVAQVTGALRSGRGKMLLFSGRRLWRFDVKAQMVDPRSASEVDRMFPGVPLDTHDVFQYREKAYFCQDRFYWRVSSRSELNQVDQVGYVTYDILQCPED

Row | Compound | IC50 (hMMP-1) [nM] | IC50 (hMMP-13) [nM] | IC50 (hMMP-9) [nM] | IC50 (hMMP-2) [nM] | IC50 (hMMP-3) [nM] | IC50 (hMMP-8) [nM] | most common drug-related toxicity ([1]; clinical trials in patients) | effect on cancer-specific antigens used as surrogate markers for biological activity ([1]; patients with colorectal, pancreatic, ovarian, prostate cancers)
1 | C[C@H](C(=O)NO)N(CCN1CCOCC1)S(=O)(=O)c1ccc(NC(=O)c2ccccc2)cc1 [Example 4] | > 10000 | 2.5 | 20 | – | – | – | – | –
2 | C[C@H](C(=O)NO)N(CCN1CCOCC1)S(=O)(=O)c1ccc(NC(=O)C2CCCCC2)cc1 [Example 6] | > 10000 | 250 | 3500 | – | – | – | – | –
3 | C[C@H](C(=O)NO)N(CCN1CCOCC1)S(=O)(=O)c1ccc(NC(=O)c2ccc(Br)cc2)cc1 [Example 5] | 4850 | 0.35 | – | – | – | – | – | –
4 | CCCCCc1ccc(C(=O)Nc2ccc(S(=O)(=O)N[C@H](Cc3ccccc3)C(=O)NO)cc2)cc1 [Example 14] | > 10000 | < 0.1 | 161 | < 0.1 | 30 | 34 | – | –
5 | CCCCCc1ccc(C(=O)Nc2ccc(S(=O)(=O)N(CCN3CCOCC3)[C@@H](C(=O)NO)C(C)C)cc2)cc1 [Example 9] | 4000 | < 0.1 | 200 | < 0.1 | 55 | 8 | – | –
6 | CCCCCCc1ccc(C(=O)Nc2ccc(S(=O)(=O)N(CCN3CCOCC3)[C@@H](C(=O)NO)C(C)C)cc2)cc1 [Example 10a, (R)-4-Hexyl-N-[4-[[[1-(hydroxyamino)-carbonyl]-2-methylpropyl][2-(4-morpholinyl)ethyl]amino]sulfonyl]phenylbenzamide] | – | – | – | < 0.1 | 180 | 2.6 | – | –
7 | CCCCCCc1ccc(C(=O)Nc2ccc(S(=O)(=O)N(CCN3CCOCC3)[C@@H](C(=O)NO)C(C)C)cc2)cc1 [Example 10] | 5600 | < 0.1 | 350 | – | – | – | – | –
8 | CC(C)[C@H](C(=O)NO)N(CCN1CCOCC1)S(=O)(=O)c1ccc(NC(=O)c2ccc(Br)cc2)cc1 [Example 13] | 880 | 0.4 | 1.9 | – | – | – | – | –
9 | CNC(=O)[C@@H](NC(=O)[C@H](CC(C)C)[C@H](O)C(=O)NO)C(C)(C)C [marimastat] | – | – | – | – | – | – | musculoskeletal pain and stiffness | dose-related reduction in the rise of cancer-specific antigens
10 | CC(C)[C@H](C(=O)NO)N(CCN1CCOCC1)S(=O)(=O)c1ccc(NC(=O)c2ccccc2)cc1 [Example 12] | 3400 | 11.4 | 245 | – | 800 | 12.3 | – | –
11 | CCCc1ccc(C(=O)Nc2ccc(S(=O)(=O)N(Cc3cccnc3)[C@@H](C(=O)NO)C(C)C)cc2)cc1 [Example 11] | > 10000 | 0.5 | 24 | 0.1 | 225 | 39 | – | –
12 | CCCCCc1ccc(C(=O)Nc2ccc(S(=O)(=O)N(CCN3CCOCC3)[C@H](Cc3ccccc3)C(=O)NO)cc2)cc1 [Example 15] | > 10000 | < 0.1 | 286 | < 0.1 | 140 | 241 | – | –
13 | CCCc1ccc(C(=O)Nc2ccc(S(=O)(=O)N(CCN3CCOCC3)[C@@H](C(=O)NO)C(C)C)cc2)cc1 [Example 7] | 4000 | 0.3 | 4.5 | – | 90 | 9 | – | –
14 | CCCCc1ccc(C(=O)Nc2ccc(S(=O)(=O)N(CCN3CCOCC3)[C@@H](C(=O)NO)C(C)C)cc2)cc1 [Example 8] | 4000 | 0.1 | 31 | – | 50 | 25.8 | – | –
15 | C[C@H](C(=O)NO)N(CCN1CCOCC1)S(=O)(=O)c1ccc(NC(=O)c2ccccc2)cc1 [Example 4a, (R)-N-[4-[[[2-(Hydroxyamino)-1-methyl-2-oxoethyl][2-4-morpholinyl)ethyl]amino]sulfonyl]phenyl]benzamide, Monohydrochloride] | – | 2.2 | 24 | – | – | – | – | –
